Measured values from PMC9150124, “Design of a Potent, Selective, and Brain-Penetrant Inhibitor of Wnt-Deactivating Enzyme Notum by Optimization of a Crystallographic Fragment Hit” (Journal of Medicinal Chemistry, 2022).

Columns and labels:
Assay in all cases: SelectScreen kinase profiling, SSBK ZLyte SP Technology
Type in all cases: biochemical
[1] = molecular target: kinase named in conditions (Homo sapiens, UniProt Q16566); settings: CAMK4 (CaMKIV), 10 μM
Protocol: (§1) Kinase selectivity screening was performed by Thermo Fisher Scientific (Paisley, U.K.) in their SelectScreen Biochemical Kinase Profiling Service. Assay information and data are presented in the Supporting Information.
(§2) Kinase selectivity screening was performed by ThermoFisher Scientific (Paisley, U.K.) in their SelectScreenTM
(§3) Biochemical Kinase Profiling service .

[2] = molecular target: kinase named in conditions (Homo sapiens, UniProt P16234, D842V); settings: PDGFRA D842V, 10 μM
Protocol: as §1, §2, §3

[3] = molecular target: kinase named in conditions (Homo sapiens, UniProt P28482); settings: MAPK1 (ERK2), 10 μM
Protocol: as §1, §2, §3

[4] = molecular target: kinase named in conditions (Homo sapiens, UniProt Q15418); settings: RPS6KA1 (RSK1), 10 μM
Protocol: as §1, §2, §3

[5] = molecular target: kinase named in conditions (Homo sapiens, UniProt P00533, T790M); settings: EGFR (ErbB1) T790M, 10 μM
Sequence of kinase named in conditions (Homo sapiens, UniProt P00533, T790M) (P00533 25-1210 T790M): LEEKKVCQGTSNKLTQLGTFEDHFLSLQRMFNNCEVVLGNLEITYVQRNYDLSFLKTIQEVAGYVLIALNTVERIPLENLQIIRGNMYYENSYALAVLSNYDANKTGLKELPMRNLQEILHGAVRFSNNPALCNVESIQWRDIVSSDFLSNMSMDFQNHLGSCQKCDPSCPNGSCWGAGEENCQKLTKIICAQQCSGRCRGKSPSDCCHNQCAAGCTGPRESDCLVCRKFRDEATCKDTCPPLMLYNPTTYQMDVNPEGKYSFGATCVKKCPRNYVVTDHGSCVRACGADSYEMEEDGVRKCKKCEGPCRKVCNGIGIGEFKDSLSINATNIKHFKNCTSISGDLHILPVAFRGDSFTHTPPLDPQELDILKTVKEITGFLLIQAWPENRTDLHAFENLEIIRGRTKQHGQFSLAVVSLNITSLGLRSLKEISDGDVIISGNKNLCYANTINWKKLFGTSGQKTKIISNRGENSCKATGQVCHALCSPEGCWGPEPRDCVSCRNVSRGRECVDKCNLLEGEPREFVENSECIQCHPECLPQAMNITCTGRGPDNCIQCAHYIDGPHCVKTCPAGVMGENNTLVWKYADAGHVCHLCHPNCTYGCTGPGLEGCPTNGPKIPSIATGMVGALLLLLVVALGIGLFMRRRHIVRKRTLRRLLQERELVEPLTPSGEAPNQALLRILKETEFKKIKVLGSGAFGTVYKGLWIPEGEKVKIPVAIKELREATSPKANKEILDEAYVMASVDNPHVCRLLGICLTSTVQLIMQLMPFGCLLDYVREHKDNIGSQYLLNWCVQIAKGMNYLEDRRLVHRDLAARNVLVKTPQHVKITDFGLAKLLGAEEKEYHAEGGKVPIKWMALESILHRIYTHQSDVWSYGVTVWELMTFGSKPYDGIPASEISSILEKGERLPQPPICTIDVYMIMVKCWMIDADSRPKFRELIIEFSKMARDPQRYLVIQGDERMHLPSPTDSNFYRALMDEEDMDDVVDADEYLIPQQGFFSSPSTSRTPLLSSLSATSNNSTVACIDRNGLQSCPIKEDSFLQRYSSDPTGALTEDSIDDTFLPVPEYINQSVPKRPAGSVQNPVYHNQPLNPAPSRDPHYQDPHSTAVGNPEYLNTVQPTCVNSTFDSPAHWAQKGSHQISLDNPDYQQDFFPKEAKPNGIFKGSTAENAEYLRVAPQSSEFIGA
Protocol: as §1, §2, §3

[6] = molecular target: kinase named in conditions (Homo sapiens, UniProt P23443); settings: RPS6KB1 (p70S6K), 10 μM
Protocol: as §1, §2, §3

[7] = molecular target: kinase named in conditions (Homo sapiens, UniProt O14757); settings: CHEK1 (CHK1), 10 μM
Protocol: as §1, §2, §3

[8] = molecular target: kinase named in conditions (Homo sapiens, UniProt P00519); settings: ABL1, 10 μM
Protocol: as §1, §2, §3

[9] = molecular target: kinase named in conditions (Homo sapiens, UniProt P54646)
Sequence of kinase named in conditions (Homo sapiens, UniProt P54646) (P54646 whole entry): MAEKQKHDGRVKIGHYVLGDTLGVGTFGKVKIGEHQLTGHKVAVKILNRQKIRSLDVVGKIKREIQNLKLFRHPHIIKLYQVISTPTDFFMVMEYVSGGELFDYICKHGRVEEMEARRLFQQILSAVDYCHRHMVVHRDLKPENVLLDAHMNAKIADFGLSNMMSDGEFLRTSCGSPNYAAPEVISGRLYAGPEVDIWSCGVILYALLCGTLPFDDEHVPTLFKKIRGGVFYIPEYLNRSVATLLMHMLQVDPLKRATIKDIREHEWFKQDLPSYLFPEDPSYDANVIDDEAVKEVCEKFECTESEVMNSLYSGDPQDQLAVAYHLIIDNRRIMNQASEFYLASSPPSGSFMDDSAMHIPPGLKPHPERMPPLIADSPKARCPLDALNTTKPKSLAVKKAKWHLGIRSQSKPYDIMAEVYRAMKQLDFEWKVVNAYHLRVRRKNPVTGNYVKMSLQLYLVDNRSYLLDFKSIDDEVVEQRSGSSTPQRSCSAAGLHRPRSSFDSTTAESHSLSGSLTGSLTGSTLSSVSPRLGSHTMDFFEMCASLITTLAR
Protocol: as §1, §2, §3

[10] = molecular target: kinase named in conditions (Homo sapiens, UniProt Q16288); settings: NTRK3 (TRKC), 10 μM
Sequence of kinase named in conditions (Homo sapiens, UniProt Q16288) (Q16288 32-839): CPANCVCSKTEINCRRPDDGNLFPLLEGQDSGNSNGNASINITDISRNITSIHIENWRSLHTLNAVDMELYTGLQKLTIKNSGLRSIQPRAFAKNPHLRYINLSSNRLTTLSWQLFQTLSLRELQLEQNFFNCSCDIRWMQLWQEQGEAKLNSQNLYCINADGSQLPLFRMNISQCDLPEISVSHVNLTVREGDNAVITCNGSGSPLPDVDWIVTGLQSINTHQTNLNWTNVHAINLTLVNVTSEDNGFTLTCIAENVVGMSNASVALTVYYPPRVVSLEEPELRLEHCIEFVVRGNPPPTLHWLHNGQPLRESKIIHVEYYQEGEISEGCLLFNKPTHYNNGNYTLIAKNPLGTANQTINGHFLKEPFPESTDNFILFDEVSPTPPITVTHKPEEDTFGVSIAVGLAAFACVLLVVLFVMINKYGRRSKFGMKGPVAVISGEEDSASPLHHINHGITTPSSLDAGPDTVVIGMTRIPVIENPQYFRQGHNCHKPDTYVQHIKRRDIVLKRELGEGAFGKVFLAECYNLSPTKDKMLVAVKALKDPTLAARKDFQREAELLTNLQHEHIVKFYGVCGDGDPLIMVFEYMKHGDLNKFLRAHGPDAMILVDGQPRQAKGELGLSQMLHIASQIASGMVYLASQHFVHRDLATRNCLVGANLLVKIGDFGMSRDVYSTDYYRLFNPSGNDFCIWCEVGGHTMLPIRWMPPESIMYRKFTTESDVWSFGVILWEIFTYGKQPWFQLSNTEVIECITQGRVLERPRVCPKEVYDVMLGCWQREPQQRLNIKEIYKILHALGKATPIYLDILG
Protocol: as §1, §2, §3

[11] = molecular target: kinase named in conditions (Homo sapiens, UniProt Q9H2X6); settings: HIPK2, 10 μM
Protocol: as §1, §2, §3

[12] = molecular target: kinase named in conditions (Homo sapiens, UniProt P07949, V804L); settings: RET V804L, 10 μM
Protocol: as §1, §2, §3

[13] = molecular target: kinase named in conditions (Homo sapiens, UniProt P15056, V600E); settings: BRAF V599E, 10 μM
Protocol: as §1, §2, §3

[14] = molecular target: kinase named in conditions (Homo sapiens, UniProt Q9UL54); settings: TAOK2 (TAO1), 10 μM
Protocol: as §1, §2, §3

[15] = molecular target: kinase named in conditions (Homo sapiens, UniProt Q9Y4K4); settings: MAP4K5 (KHS1), 10 μM
Protocol: as §1, §2, §3

[16] = molecular target: kinase named in conditions (Homo sapiens, UniProt P53778); settings: MAPK12 (p38 gamma), 10 μM
Protocol: as §1, §2, §3

[17] = molecular target: kinase named in conditions (Homo sapiens, UniProt P27361); settings: MAPK3 (ERK1), 10 μM
Protocol: as §1, §2, §3

[18] = molecular target: kinase named in conditions (Homo sapiens, UniProt O00141); settings: SGK (SGK1), 10 μM
Protocol: as §1, §2, §3

[19] = molecular target: kinase named in conditions (Homo sapiens, UniProt P08631); settings: HCK, 10 μM
Protocol: as §1, §2, §3

[20] = molecular target: kinase named in conditions (Homo sapiens, UniProt P35626); settings: ADRBK2 (GRK3), 10 μM
Protocol: as §1, §2, §3

[21] = molecular target: kinase named in conditions (Homo sapiens, UniProt Q04912); settings: MST1R (RON), 10 μM
Sequence of kinase named in conditions (Homo sapiens, UniProt Q04912) (Q04912 25-1400): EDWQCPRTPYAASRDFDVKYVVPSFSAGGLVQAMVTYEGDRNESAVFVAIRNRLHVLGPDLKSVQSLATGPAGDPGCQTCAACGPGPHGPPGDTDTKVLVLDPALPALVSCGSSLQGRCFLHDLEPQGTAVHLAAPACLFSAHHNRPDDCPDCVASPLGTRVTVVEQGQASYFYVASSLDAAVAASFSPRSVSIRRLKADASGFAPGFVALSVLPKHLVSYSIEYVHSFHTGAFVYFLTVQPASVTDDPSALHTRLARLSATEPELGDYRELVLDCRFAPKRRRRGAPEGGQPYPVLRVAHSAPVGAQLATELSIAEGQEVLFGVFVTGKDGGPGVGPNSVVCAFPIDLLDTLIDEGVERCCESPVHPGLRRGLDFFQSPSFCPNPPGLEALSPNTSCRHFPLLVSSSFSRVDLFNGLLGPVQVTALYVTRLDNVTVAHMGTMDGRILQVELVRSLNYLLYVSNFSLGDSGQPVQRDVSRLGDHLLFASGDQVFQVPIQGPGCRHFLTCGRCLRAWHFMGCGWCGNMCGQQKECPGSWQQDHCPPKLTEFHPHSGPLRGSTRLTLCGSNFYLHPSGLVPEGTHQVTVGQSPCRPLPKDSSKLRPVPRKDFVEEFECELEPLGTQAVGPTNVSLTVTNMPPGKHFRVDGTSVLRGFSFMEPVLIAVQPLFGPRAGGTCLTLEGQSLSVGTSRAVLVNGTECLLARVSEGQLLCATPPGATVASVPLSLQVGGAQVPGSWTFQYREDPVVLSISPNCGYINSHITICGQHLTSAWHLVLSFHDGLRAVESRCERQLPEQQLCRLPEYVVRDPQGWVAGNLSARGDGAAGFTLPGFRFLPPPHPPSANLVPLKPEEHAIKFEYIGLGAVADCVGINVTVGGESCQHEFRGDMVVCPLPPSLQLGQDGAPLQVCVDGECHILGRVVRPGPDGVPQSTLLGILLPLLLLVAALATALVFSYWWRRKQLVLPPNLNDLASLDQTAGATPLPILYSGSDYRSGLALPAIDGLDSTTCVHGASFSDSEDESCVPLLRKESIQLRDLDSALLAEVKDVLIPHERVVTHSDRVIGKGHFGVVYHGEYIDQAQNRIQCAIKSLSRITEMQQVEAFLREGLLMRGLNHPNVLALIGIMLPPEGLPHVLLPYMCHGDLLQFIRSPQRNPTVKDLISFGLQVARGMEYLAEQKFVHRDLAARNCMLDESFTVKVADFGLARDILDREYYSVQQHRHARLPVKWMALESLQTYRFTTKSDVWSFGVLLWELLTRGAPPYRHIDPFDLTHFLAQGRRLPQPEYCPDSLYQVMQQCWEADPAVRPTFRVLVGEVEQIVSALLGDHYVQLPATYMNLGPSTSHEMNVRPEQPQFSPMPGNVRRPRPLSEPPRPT
Protocol: as §1, §2, §3

[22] = molecular target: kinase named in conditions (Homo sapiens, UniProt O60674)
Sequence of kinase named in conditions (Homo sapiens, UniProt O60674) (O60674 whole entry): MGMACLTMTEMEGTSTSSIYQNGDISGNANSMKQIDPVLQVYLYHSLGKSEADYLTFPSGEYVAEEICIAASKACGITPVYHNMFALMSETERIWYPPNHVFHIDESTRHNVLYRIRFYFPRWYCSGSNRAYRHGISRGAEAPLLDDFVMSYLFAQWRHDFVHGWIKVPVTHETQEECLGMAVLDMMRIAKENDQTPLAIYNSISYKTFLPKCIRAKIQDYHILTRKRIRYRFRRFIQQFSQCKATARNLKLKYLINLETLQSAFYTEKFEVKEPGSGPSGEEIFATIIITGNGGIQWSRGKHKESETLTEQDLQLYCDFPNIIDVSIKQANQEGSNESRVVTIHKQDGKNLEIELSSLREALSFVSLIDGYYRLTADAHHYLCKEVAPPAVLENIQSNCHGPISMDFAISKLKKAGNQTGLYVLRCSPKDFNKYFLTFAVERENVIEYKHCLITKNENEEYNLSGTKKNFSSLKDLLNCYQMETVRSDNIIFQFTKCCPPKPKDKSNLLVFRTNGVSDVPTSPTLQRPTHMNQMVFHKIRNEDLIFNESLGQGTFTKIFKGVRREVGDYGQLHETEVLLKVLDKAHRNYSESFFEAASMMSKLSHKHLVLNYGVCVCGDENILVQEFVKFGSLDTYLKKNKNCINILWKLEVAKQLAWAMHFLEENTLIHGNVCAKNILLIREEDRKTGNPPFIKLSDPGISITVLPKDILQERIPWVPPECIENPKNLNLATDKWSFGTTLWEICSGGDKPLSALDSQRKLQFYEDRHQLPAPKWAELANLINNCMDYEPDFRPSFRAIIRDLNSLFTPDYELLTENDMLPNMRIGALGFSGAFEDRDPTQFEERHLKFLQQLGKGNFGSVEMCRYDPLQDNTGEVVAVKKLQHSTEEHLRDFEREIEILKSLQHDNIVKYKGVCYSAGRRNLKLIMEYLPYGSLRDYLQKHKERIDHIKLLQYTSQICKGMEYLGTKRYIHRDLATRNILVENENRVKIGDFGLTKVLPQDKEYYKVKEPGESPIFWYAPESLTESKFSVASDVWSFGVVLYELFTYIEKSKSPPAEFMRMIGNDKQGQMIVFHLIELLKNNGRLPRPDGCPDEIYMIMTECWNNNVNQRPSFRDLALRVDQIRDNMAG
Protocol: as §1, §2, §3

[23] = molecular target: kinase named in conditions (Homo sapiens, UniProt P49761); settings: CLK3, 10 μM
Protocol: as §1, §2, §3

[24] = molecular target: kinase named in conditions (Homo sapiens, UniProt P00519, Y253F); settings: ABL1 Y253F, 10 μM
Protocol: as §1, §2, §3

[25] = molecular target: kinase named in conditions (Homo sapiens, UniProt P22607, K650E); settings: FGFR3 K650E, 10 μM
Protocol: as §1, §2, §3

[26] = molecular target: kinase named in conditions (Homo sapiens, UniProt P06493); settings: CDK1/cyclin B, 10 μM
Protocol: as §1, §2, §3

[27] = molecular target: kinase named in conditions (Homo sapiens, UniProt P78527); settings: DNA-PK, 10 μM
Protocol: as §1, §2, §3

[28] = molecular target: kinase named in conditions (Homo sapiens, UniProt P42345); settings: FRAP1 (mTOR), 10 μM
Protocol: as §1, §2, §3

[29] = molecular target: kinase named in conditions (Homo sapiens, UniProt Q05513); settings: PRKCZ (PKC zeta), 10 μM
Protocol: as §1, §2, §3

[30] = molecular target: kinase named in conditions (Homo sapiens, UniProt P29322); settings: EPHA8, 10 μM
Protocol: as §1, §2, §3

[31] = molecular target: kinase named in conditions (Homo sapiens, UniProt Q13557); settings: CAMK2D (CaMKII delta), 10 μM
Protocol: as §1, §2, §3

[32] = molecular target: kinase named in conditions (Homo sapiens, UniProt P54762); settings: EPHB1, 10 μM
Protocol: as §1, §2, §3

[33] = molecular target: kinase named in conditions (Homo sapiens, UniProt P23458); settings: JAK1, 10 μM
Protocol: as §1, §2, §3

Which inhibition at 10 µM [1] does the source give for `FC(F)(F)c1c(Cl)ccc(-n2ccnn2)c1Cl` [8l, 1-(2,4-Dichloro-3-(trifluoromethyl)phenyl)-1H-1,2,3-triazole] here?
Its inhibition at 10 µM is 15%.

What about the inhibition at 10 µM [2] of the same compound?
The inhibition at 10 µM was 0%.

And the inhibition at 10 µM [3]?
The inhibition at 10 µM was -2%.

What about the inhibition at 10 µM [4] of the same compound?
The inhibition at 10 µM was 8%.

What about the inhibition at 10 µM [5] of the same compound?
Its inhibition at 10 µM is 9%.

What about the inhibition at 10 µM [6] of the same compound?
Its inhibition at 10 µM is 9%.

And the inhibition at 10 µM [7]?
Its inhibition at 10 µM is 24%.

And the inhibition at 10 µM [8]?
Its inhibition at 10 µM is 19%.

What about the inhibition at 10 µM ([9]; AMPK (A2/B1/G2), 10 μM) of the same compound?
Its inhibition at 10 µM is -2%.

And the inhibition at 10 µM ([9]; AMPK (A2/B1/G3), 10 μM)?
Its inhibition at 10 µM is 2%.

And the inhibition at 10 µM ([9]; AMPK (A2/B2/G3), 10 μM)?
The inhibition at 10 µM was 3%.

What about the inhibition at 10 µM ([9]; AMPK A2/B1/G1, 10 μM) of the same compound?
The inhibition at 10 µM was 14%.

What about the inhibition at 10 µM [10] of the same compound?
The inhibition at 10 µM was 17%.

And the inhibition at 10 µM [11]?
The inhibition at 10 µM was 2%.

What about the inhibition at 10 µM [12] of the same compound?
The inhibition at 10 µM was 8%.

And the inhibition at 10 µM [13]?
Its inhibition at 10 µM is 5%.

And the inhibition at 10 µM [14]?
Its inhibition at 10 µM is -8%.

What about the inhibition at 10 µM [15] of the same compound?
Its inhibition at 10 µM is -10%.

And the inhibition at 10 µM [16]?
Its inhibition at 10 µM is 2%.

What about the inhibition at 10 µM [17] of the same compound?
The inhibition at 10 µM was 4%.

And the inhibition at 10 µM [18]?
The inhibition at 10 µM was 5%.

What about the inhibition at 10 µM [19] of the same compound?
Its inhibition at 10 µM is 10%.

And the inhibition at 10 µM [20]?
Its inhibition at 10 µM is -1%.

What about the inhibition at 10 µM [21] of the same compound?
Its inhibition at 10 µM is 11%.

What about the inhibition at 10 µM ([22]; JAK2, 10 μM) of the same compound?
Its inhibition at 10 µM is 3%.

What about the inhibition at 10 µM ([22]; JAK2 JH1 JH2, 10 μM) of the same compound?
The inhibition at 10 µM was -1%.

And the inhibition at 10 µM [23]?
Its inhibition at 10 µM is 2%.

And the inhibition at 10 µM [24]?
Its inhibition at 10 µM is 13%.

What about the inhibition at 10 µM [25] of the same compound?
Its inhibition at 10 µM is -5%.

And the inhibition at 10 µM [26]?
Its inhibition at 10 µM is 4%.

And the inhibition at 10 µM [27]?
The inhibition at 10 µM was 0%.

What about the inhibition at 10 µM [28] of the same compound?
The inhibition at 10 µM was 4%.

And the inhibition at 10 µM [29]?
The inhibition at 10 µM was 23%.

And the inhibition at 10 µM [30]?
The inhibition at 10 µM was 2%.

And the inhibition at 10 µM [31]?
The inhibition at 10 µM was 7%.

What about the inhibition at 10 µM [32] of the same compound?
The inhibition at 10 µM was 3%.

And the inhibition at 10 µM [33]?
The inhibition at 10 µM was 2%.
